The source of these data is patent publication US20070287719A1, “Salts, Prodrugs and Formulations of 1-[5-(4-Amino-7-Isopropyl-7H-Pyrrolo[2,3-D]Pyrimidine-5-Carbonyl)-2-Methoxy-Phenyl]-3-(2,4-Dichloro-Phenyl)-Urea” (Pfizer Inc, priority 2005, published 2007).

In data set [1] the target is T1, recombinant human erbB-TIE2 chimeric receptor overexpressed in C6 rat glioma cells (Homo sapiens, UniProt Q02763).
T1 construct: erbB extracellular domain with TIE2 intracellular domain; extracellular domain of human EGFR (erbB); expressed in transfected cells; host or cells: C6 rat glioma cells
The experiment in a line: Cell-based TIE-2 kinase activity of chimeric receptor.

The target of data set [2] is inactive (unphosphorylated) TIE2 kinase (Homo sapiens, UniProt Q02763). The experiment in a line: Inhibition of inactive TIE2 kinase. The class given is biochemical. From the text: (§1) The crystalline and non-crystalline forms and formulations of 1-[5-(4-Amino-7-isopropyl-7H-pyrrolo[2,3-d[pyrimidine-5-carbonyl)-2-methoxy-phenyl]-3-(2 4-dichloro-phenyl)-urea are selective inhibitors of the tyrosine kinases, Tie-2, TrkA and related family member TrkB. The potentcy of these forms and formulations of the present invention at the tyrosine kinases may be determined using the following assays.

A short description of data set [3]: Plasma pharmacokinetics after oral dosing, dog. The note with it: Dog (n = 3), 30 mg Active Agent/kg. The class given is in vivo. As for the experimental part:
(§2) Alternatively, the compositions of the present invention, when dosed orally to a human or other mammal, provide an AUC inhibitor concentration in the blood (herein referred to as a plasma AUC) that is at least about 4 fold that observed when a control composition comprising all equivalent quantity of undispersed drug is dosed. It is noted that such compositions can also be said to have a relative bioavailability of about 4. Preferably, the compositions of the present invention, when dosed orally to a human or other mammal, provide an AUC inhibitor concentration in the blood that is at least about 6 fold, more preferably at least about 10 fold, and even more preferably at least about 20 fold that observed when a control composition comprising an equivalent quantity of undispersed drug is dosed. […] An exemplary dosing vehicle would be a suspension solution of water containing 0.5 wt percent […] (such as METHOCEL) and 0.16 wt percent of the surfactant polyoxyethylene 20 sorbitan monooleate (such as TWEEN 80). Thus, the compositions of the present invention can be evaluated in either in vitro or in vivo tests, or both. […]
(§3) Relative bioavailability of inhibitor in the dispersions of the present invention can be tested in vivo in animals or humans using conventional methods for making such a determination. […] In an in vivo crossover study a “test composition” of inhibitor and polymer is dosed to half a group of test subjects and, after an appropriate washout period (e.g., one week) the same subjects are dosed with a “control composition” that comprises an equivalent quantity of inhibitor as the “test composition” (but with no polymer present). […] The relative bioavailability is measured as the concentration in the blood (serum or plasma) versus time area under the curve (AUC) determined for the test group divided by the AUC in the blood provided by the control composition. Preferably, this test/control ratio is determined for each subject, and then the ratios are averaged over all subjects in the study. […]

The target of data set [4] is T2, fully activated recombinant GST-TIE2 construct (Homo sapiens, UniProt Q02763).
T2 construct: made in house; host or cells: insect cells (baculovirus)
The experiment in a line: Tie-2 tyrosine kinase inhibition, GST-Tie-2 fusion protein, PGT plate ELISA. The class given is biochemical. As for the experimental part: as §1
Inhibition of Tie-2 tyrosine kinase activity is measured in 96-well Maxisorp plates (Nunc) coated with poly-Glu-Tyr (PGT 4:1 Sigma) by the addition of 100 μL/well of a 25 μg/mL solution of PGT in PBS. Plates are incubated at 37° C. overnight, and transferred to 4° C. until use. Prior to compound testing, appropriate dilutions of compounds are made in 96-well polypropylene plates. […] GST-Tie-2 would be previously isolated from insect cells infected with GST-Tie-2 baculoviruses, and used at concentrations determined to provide OD450 signals of approximately 1.0 in the presence of ATP and the absence of chemical inhibitors. […] The bound HRP-PY20 antibody can be detected by the addition of 70 μL/well TMB microwell substrate (KPL), and color development terminated by the addition of an equal volume of 0.9 M H2SO4. The background signal from wells lacking ATP can be subtracted from all ATP-stimulated wells, and IC50 values calculated.
(In general: An ELISA detects its analyte on a solid surface through an enzyme-linked reagent.)

Data set [5] in a line: In vitro dissolution test in Model Fasted Duodenal (MFD) solution. The class given is physicochemical. Conditions: 1.8 mL MFD; 0.36 mg free base active agent or 1.44 mg active agent in spray dry dispersion. As for the experimental part:
The compositions comprising the active agent and concentration-enhancing polymer provide enhanced concentration of the dissolved inhibitor in in vitro dissolution tests. It has been determined that enhanced drug concentration in in vitro dissolution tests in Model Fasted Duodenal (MFD) solution or Phosphate Buffered Saline (PBS) is a good indicator of in vivo performance and bioavailability. An appropriate PBS solution is an aqueous solution comprising 20 mM sodium phosphate (Na2HPO4), 47 mM potassium phosphate (KH2PO4), 87 mM sodium chloride (NaCl), and 0.2 mM potassium chloride (KCl), adjusted to pH 6.5 with sodium hydroxide (NaOH). An appropriate MFD solution is the same PBS solution wherein additionally is present 7.3 mM sodium taurocholic acid and 1.4 mM of 1-palmitoyl-2-oleyl-sn-glycero-3-phosphocholine. In particular, a composition of the present invention can be dissolution-tested by adding it to MFD or PBS solution and agitating to promote dissolution. […]
The concentration of dissolved inhibitor is typically measured as a function of time by sampling the test medium and plotting inhibitor concentration in the test medium vs. time so that the MDC can be ascertained. The MDC is taken to be the maximum value of dissolved inhibitor measured over the duration of the test. […]

Data set [6] can be described thus: Plasma pharmacokinetics after oral dosing, rat. It counts as in vivo. The note with it: Rat (n = 4), 100 mg Active Agent/kg. As for the experimental part:
as §2, §3

A short description of data set [7]: Hygroscopicity of salt forms. The class given is physicochemical. Conditions: at 90 percent relative humidity at ambient temperature.

Chain of inactive (unphosphorylated) TIE2 kinase (Q02763 23-1124): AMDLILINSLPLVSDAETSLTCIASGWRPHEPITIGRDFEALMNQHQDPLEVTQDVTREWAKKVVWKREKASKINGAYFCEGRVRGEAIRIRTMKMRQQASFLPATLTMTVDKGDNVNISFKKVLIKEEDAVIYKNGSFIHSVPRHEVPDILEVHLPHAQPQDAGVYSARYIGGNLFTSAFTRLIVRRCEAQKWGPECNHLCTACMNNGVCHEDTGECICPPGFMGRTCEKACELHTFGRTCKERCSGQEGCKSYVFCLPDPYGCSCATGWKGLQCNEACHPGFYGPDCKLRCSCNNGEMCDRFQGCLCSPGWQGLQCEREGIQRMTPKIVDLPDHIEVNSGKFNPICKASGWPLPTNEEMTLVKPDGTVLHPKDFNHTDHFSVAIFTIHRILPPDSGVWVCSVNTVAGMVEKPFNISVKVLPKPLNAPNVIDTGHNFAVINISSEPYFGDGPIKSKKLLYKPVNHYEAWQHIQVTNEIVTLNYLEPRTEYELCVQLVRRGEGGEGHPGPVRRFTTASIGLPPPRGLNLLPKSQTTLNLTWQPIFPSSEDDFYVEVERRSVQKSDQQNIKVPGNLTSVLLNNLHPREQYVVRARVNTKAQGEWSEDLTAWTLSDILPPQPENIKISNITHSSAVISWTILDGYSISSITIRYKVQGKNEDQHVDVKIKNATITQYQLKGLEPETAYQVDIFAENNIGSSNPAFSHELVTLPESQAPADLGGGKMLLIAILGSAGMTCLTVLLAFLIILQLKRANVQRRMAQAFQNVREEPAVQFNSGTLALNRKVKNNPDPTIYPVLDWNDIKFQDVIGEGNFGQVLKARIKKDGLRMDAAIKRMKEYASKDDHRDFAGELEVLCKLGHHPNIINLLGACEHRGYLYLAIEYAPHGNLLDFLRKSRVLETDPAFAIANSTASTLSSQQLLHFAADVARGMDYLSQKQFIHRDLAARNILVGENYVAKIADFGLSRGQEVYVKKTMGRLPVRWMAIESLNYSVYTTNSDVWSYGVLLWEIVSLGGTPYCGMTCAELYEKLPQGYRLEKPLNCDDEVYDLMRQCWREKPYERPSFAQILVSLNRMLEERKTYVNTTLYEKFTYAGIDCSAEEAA
T2 sequence (Q02763 23-1124): as above
T1 sequence (Q02763 770-1124 limits assumed, change not shown): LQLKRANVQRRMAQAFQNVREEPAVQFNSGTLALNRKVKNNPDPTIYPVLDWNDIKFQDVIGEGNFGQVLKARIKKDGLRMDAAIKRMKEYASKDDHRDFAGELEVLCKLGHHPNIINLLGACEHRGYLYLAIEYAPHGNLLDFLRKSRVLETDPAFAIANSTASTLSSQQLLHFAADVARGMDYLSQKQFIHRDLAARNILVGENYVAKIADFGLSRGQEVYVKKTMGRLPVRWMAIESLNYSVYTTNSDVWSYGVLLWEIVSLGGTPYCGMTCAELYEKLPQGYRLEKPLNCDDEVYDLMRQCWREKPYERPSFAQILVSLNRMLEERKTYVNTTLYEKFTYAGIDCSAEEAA

Broadly, the IC50 is the concentration that inhibits the measured activity by half. By Ki is commonly meant a dissociation constant, usually derived from enzyme kinetics or from competition with a known ligand. Read a low Ki as tighter binding. For orientation: Cmax means the peak of the concentration-time curve. The term Tmax denotes the time at which the peak concentration occurs. With `COc1ccc(C(=O)c2cn(C(C)C)c3ncnc(N)c23)cc1NC(=O)Nc1ccc(Cl)cc1Cl` [1-[5-(4-amino-7-isopropyl-7H-pyrrolo[2,3-d]pyrimidine-5-carbonyl)-2-methoxy-phenyl]-3-(2,4-dichloro-phenyl)-urea], the concentration for half-maximal inhibition (IC50) in data set [1] is 4.67 nM; in data set [4], 280 nM. Further, in data set [2], affinity was put at a Ki of 23 nM. In addition, the Cmax in data set [3] worked out at 347 ± 556 ng/mL; in data set [6] it was 191 ± 153 ng/mL. Further, the results for the Tmax in data set [3] and in data set [6] were 4 ± 2 h and 4.5 ± 1 h, respectively. The results for the AUC(0-t) in data set [3] (read-out: AUC0-24) and in data set [6] (read-out: AUC0-24) were 2810 ± 4550 ng·h/mL and 1300 ± 940 ng·h/mL, respectively. Besides, the “AUC (aqueous concentration versus time)” value in data set [5] was found to be 100 µg·min/mL. The “MDC (Maximum Drug Concentration)” value in data set [5] turned out to be 3 µg/mL.
In the case of `COc1ccc(C(=O)c2cn(C(C)C)c3ncnc(N)c23)cc1NC(=O)Nc1ccc(Cl)cc1Cl.O=P(O)(O)O` [Example 1, 1-[5-(4-Amino-7-isopropyl-7H-pyrrolo[2,3-d]pyrimidine-5-carbonyl)-2-methoxy-phenyl]-3-(2,4-dichloro-phenyl)-urea•Phosphate], in data set [7], the Hygroscopicity is given as 0.8 percent (by weight).
Consider `COc1ccc(C(=O)c2cn(C(C)C)c3ncnc(N)c23)cc1NC(=O)Nc1ccc(Cl)cc1Cl.CS(=O)(=O)O` [Example 2, 1-[5-(4-Amino-7-isopropyl-7H-pyrrolo[2,3-d]pyrimidine-5-carbonyl)-2-methoxy-phenyl]-3-(2,4-dichloro-phenyl)-urea•Mesylate (Form B)], for which the Hygroscopicity in data set [7] is 7.9 percent (by weight).
In the case of `COc1ccc(C(=O)c2cn(C(C)C)c3ncnc(N)c23)cc1NC(=O)Nc1ccc(Cl)cc1Cl.CS(=O)(=O)O` [Example 3, 1-[5-(4-Amino-7-isopropyl-7H-pyrrolo[2,3-d]pyrimidine-5-carbonyl)-2-methoxy-phenyl]-3-(2,4-dichloro-phenyl)-urea•Mesylate (Polymorph A)], the Hygroscopicity in data set [7] is reported as 1.6 percent (by weight).
Same read-out and setting: the result for `COc1ccc(C(=O)c2cn(C(C)C)c3ncnc(N)c23)cc1NC(=O)Nc1ccc(Cl)cc1Cl.O=S(=O)(O)c1ccccc1` [Example 8, 1-[5-(4-Amino-7-isopropyl-7H-pyrrolo[2,3-d]pyrimidine-5-carbonyl)-2-methoxy-phenyl]-3-(2,4-dichloro-phenyl)-urea•Besylate] reads 2.0 percent (by weight); that for `COc1ccc(C(=O)c2cn(C(C)C)c3ncnc(N)c23)cc1NC(=O)Nc1ccc(Cl)cc1Cl.Cc1ccc(S(=O)(=O)O)cc1` [Example 9, 1-[5-(4-Amino-7-isopropyl-7H-pyrrolo[2,3-d]pyrimidine-5-carbonyl)-2-methoxy-phenyl]-3-(2,4-dichloro-phenyl)-urea•Tosylate], 1.1 percent (by weight).
